Data reported in US5166208A, “Fredericamycin A derivatives” (Boston College, priority 1991, dated 1992).
≈ marks a conversion by molar mass, not a printed value. Structures can show the parent of a compound that is named as a salt.

Assays:
[1] = system: human colon tumor (HCT116); assay: In vitro microdilution inhibition, HCT116; type: cell-based; settings: HCT-116, 72 hours, 50% of cells killed
Description: (§1) As shown in Table III the compounds of the present invention exert an in vitro antitumor effect. The following cells lines were employed: human lung (A549); resistant human lung with low topo II activity (A549-VP); murine melanoma (B16); human colon tumor (HCT116); human colon tumor with elevated p170 levels (HCTVM); human colon tumor with low topo II activity (HCTVP); and another human colon carcinoma cell line (Moser). In the Table, the designation "NT" indicates the compound was not tested against the specified cell line. The cell lines were maintained in continuous culture at 37°, 5% CO2 and high humidity. Cells were harvested in log phase growth and suspended at concentration of 25,000 cells/mL. A […] aliquot was then added to each well (i.e., 3,750 cells per well) of a 96-well flat bottom plate and the cells were allowed to attach over a 24 hour period. After this 24 hour incubation, a 50 μL sample of the specified compound was added to the first (top) well of each column, and the remaining wells of each column serially diluted, 1:4, and allowed to incubate for 72 hours at 37° C., 5% CO2 and high humidity. Following incubation, 50 μL of freshly prepared stain solution was added to each well. After a 3 hour incubation at room temperature, absorbance was read at 450 nm on a microplate reader to determine the compound concentration at which 50% of the cells were killed, such concentration referred to as the "IC50 ".

human lung (A549) = assay: In vitro microdilution inhibition, human lung A549; type: cell-based; settings: A549, 72 hours, 50% of cells killed
Description: as §1

[2] = system: human colon tumor with elevated p170 levels (HCTVM); assay: In vitro microdilution inhibition, HCTVM; type: cell-based; settings: 72 hours, 50% of cells killed
Description: as §1

[3] = system: resistant human lung with low topo II activity (A549-VP); assay: In vitro microdilution inhibition, resistant human lung A549-VP; type: cell-based; settings: A549VP, 72 hours, 50% of cells killed
Description: as §1

[4] = system: human colon tumor with low topo II activity (HCTVP); assay: In vitro microdilution inhibition, HCTVP; type: cell-based; settings: 72 hours, 50% of cells killed
Description: as §1

murine melanoma (B16) = assay: In vitro microdilution inhibition, B16; type: cell-based; settings: Mus musculus; B16, 72 hours, 50% of cells killed
Description: as §1

p388 murine leukemia = assay: In vivo activity against p388 murine leukemia in an acute mouse model; settings: CDF1 (female only); for AWC (average weight change per mouse): before treatment to day five
Experimental: CDF1 mice of both sexes weighing between 16 and 25 gm. were used, with a 2 gm. weight range and same sex and source used per experiment. BDF1 mice also were used with the same weight, sex and source parameters. Control and test animals were injected interperitoneally with suspension of 1×10^6 p388 murine leukemia cells (0.5 mL dose) on day 0. Groups of 4-6 mice were used for each dosage amount they were treated with 5 doses on day one. A group of ten saline treated control mice was included in each set of experiments. A 30 day protocol was employed with mean survival time in days being determined for each group of mice with the number of survivors at the end of the 30 day period being noted. The mice were weighed before treatment and again on day five. The values listed for average weight change (AWC) is the average weight change per mouse at the specified dose. The change in weight was taken as a measure of drug toxicity. A loss in weight of up to 2 grams is not considered excessive. The results were determined in terms of % T/C which is the ratio of the mean survival time of the treated group to the mean survival time of the saline treated group times 100.

Compound | IC50 [1] [µg/mL] | IC50 (human lung (A549)) [µg/mL] | IC50 [2] [µg/mL] | IC50 [3] [µg/mL] | IC50 [4] [µg/mL] | IC50 (murine melanoma (B16)) [µg/mL] | other results
O=C1C=CC(=O)c2c(O)c3c(c(O)c21)C(=O)C1(CCc2ccccc21)C3=O [Example 4, 2',3'-Dihydro-1H-indene-1'-spiro-2-[4,9-dihydroxy-2H-benz[f]-indene-1,3,5,8-tetrone]] | 0.3 (≈ 0.833 µM) | 1.5 (≈ 4.16 µM) | 0.3 (≈ 0.833 µM) | 2.3 (≈ 6.38 µM) | 0.4 (≈ 1.11 µM) | 1 (≈ 2.78 µM) | –
COCOc1cccc2c1C1(CC2)C(=O)c2c(O)c3c(c(O)c2C1=O)C(=O)C(OC)=CC3=O (centres unmarked) [Example 5, 2',3'-Dihydro-7'-(methoxymethoxy)-6-methoxy-1H-indene-1'-spiro-2-[4,9-dihydroxy-2H-benz[f]indene-1,3,5,8-tetrone]] | 0.09 (≈ 0.2 µM) | 0.4 (≈ 0.888 µM) | 0.2 (≈ 0.444 µM) | 1.1 (≈ 2.44 µM) | 0.2 (≈ 0.444 µM) | 0.7 (≈ 1.55 µM) | –
COC1=CC(=O)c2c(O)c3c(c(O)c2C1=O)C(=O)C1(CCc2cccc(O)c21)C3=O (centres unmarked) [Example 6, 2',3'-Dihydro-7'-hydroxy-6-methoxy-1H-indene-1'-spiro-2-[4,9-dihydroxy-2H-benz[f]indene-1,3,5,8-tetrone]] | 1.6 (≈ 3.94 µM) | 4.9 (≈ 12.1 µM) | 1.7 (≈ 4.18 µM) | 6.4 (≈ 15.8 µM) | 3.5 (≈ 8.61 µM) | 5.2 (≈ 12.8 µM) | –
CCNC1=CC(=O)c2c(O)c3c(c(O)c2C1=O)C(=O)C1(CCc2cccc(OCOC)c21)C3=O (centres unmarked) [Example 11, 2',3'-Dihydro-6-ethylamino-7'-(methoxymethoxy)-1H-indene-1'-spiro-2-[4,9-dihydroxy-2H-benz[f]-indene-1,3,5,8-tetrone]] | 0.03 (≈ 0.0647 µM) | < 0.03 | 0.03 (≈ 0.0647 µM) | 0.03 (≈ 0.0647 µM) | 0.03 (≈ 0.0647 µM) | 0.03 (≈ 0.0647 µM) | –
COCOc1cccc2c1C1(CC2)C(=O)c2c(O)c3c(c(O)c2C1=O)C(=O)C(NCC(F)(F)F)=CC3=O (centres unmarked) [Example 13, 2',3'-Dihydro-6-(2,2,2-trifluoroethylamino)-7'-(methoxymethoxy)-1H-indene-1'-spiro-2-[4,9-dihydroxy-2H-benz[f]-indene-1,3,5,8-tetrone]] | 0.03 (≈ 0.058 µM) | < 0.03 | 0.03 (≈ 0.058 µM) | 0.05 (≈ 0.0966 µM) | 0.04 (≈ 0.0773 µM) | 0.03 (≈ 0.058 µM) | –
COCOc1cccc2c1C1(CC2)C(=O)c2c(O)c3c(c(O)c2C1=O)C(=O)C(N)=CC3=O (centres unmarked) [Example 14, 6-amino-2',3'-dihydro-7'-(methoxymethoxy)-1H-indene-1'-spiro-2-[4,9-dihydroxy-2H-benz[f]-indene-1,3,5,8-tetrone]] | 0.03 (≈ 0.0689 µM) | < 0.03 | 0.03 (≈ 0.0689 µM) | 0.03 (≈ 0.0689 µM) | 0.03 (≈ 0.0689 µM) | 0.03 (≈ 0.0689 µM) | –
COCOc1cccc2c1C1(CC2)C(=O)c2c(O)c3c(c(O)c2C1=O)C(=O)C(NCC(O)c1ccccc1)=CC3=O (centres unmarked) [Example 17, 2',3'-Dihydro-7'-(methoxymethoxy)-1H-indene-1'-spiro-2-[6-(2-hydroxy-2-phenyl-ethylamino)-4,9-dihydroxy-2H-benz[f]indene-1,3,5,8-tetrone]] | 1.47 (≈ 2.65 µM) | – | – | – | – | 15 (≈ 27 µM) | –
COCOc1cccc2c1C1(CC2)C(=O)c2c(O)c3c(c(O)c2C1=O)C(=O)C(Nc1ccccc1)=CC3=O (centres unmarked) [Example 18, 2',3'-Dihydro-7'-(methoxymethoxy)-1H-indene-1,-spiro-2-[6-(phenylamino)-4,9-dihydroxy-2H-benz[f]indene-1,3,5,8-tetrone]] | 0.09 (≈ 0.176 µM) | 0.08 (≈ 0.156 µM) | 0.11 (≈ 0.215 µM) | 0.06 (≈ 0.117 µM) | 0.07 (≈ 0.137 µM) | 0.08 (≈ 0.156 µM) | –
COCOc1cccc2c1C1(CC2)C(=O)c2c(O)c3c(c(O)c2C1=O)C(=O)C(Nc1ccc(C(=O)O)cc1)=CC3=O (centres unmarked) [Example 19, 2',3'-Dihydro-7'-(methoxymethoxy)-1H-indene-1'-spiro-2-[6-(4-carboxyanilino)-4,9-dihydroxy-2H-benz[f]indene-1,3,5,8-tetrone]] | 322 (≈ 580 µM) | – | – | – | – | 27 (≈ 48.6 µM) | –
COCOc1cccc2c1C1(CC2)C(=O)c2c(O)c3c(c(O)c2C1=O)C(=O)C(Nc1ccc(O)cc1)=CC3=O (centres unmarked) [Example 21, 2',3'-Dihydro-7'-(methoxymethoxy)-1H-indene-1'-spiro-2-[6-(4-hydroxyanilino)-4,9-dihydroxy-2H-benz[f]indene-1,3,5,8-tetrone]] | 6.79 (≈ 12.9 µM) | – | – | – | – | 18.7 (≈ 35.5 µM) | –
CCCCCc1cc2cc3c(c(OCOC)c2c(OC)n1)C1(CC3)C(=O)c2c(O)c3c(c(O)c2C1=O)C(=O)C(NCC)=CC3=O (centres unmarked) [Example 22, 6',7'-Dihydro-4,9-dihydroxy-6-ethylamino-1'-methoxy-9'-(methoxymethoxy)-3'-(n-pentyl)-spiro[2H-benz[f]-indene-2,8'[8H]cyclopent[g]isoquinoline]-1,3,5,8-tetrone] | – | – | – | – | – | – | AWC (average weight change per mouse) (p388 murine leukemia; 3.3 mg/kg): 1.5; AWC (average weight change per mouse) (p388 murine leukemia; 10 mg/kg): 1.0; AWC (average weight change per mouse) (p388 murine leukemia; 30 mg/kg): -0.2; response vs control in vivo at 3.3 mg/kg (p388 murine leukemia; Mus musculus, P388, 720 h, 3.3 mg/kg, read-out: % T/C (mean survival time treated/control)): 95%; response vs control in vivo at 10 mg/kg (p388 murine leukemia; Mus musculus, P388, 720 h, 10 mg/kg, read-out: % T/C (mean survival time treated/control)): 105%; response vs control in vivo at 30 mg/kg (p388 murine leukemia; Mus musculus, P388, 720 h, 30 mg/kg, read-out: % T/C (mean survival time treated/control)): 135%
COCOc1cccc2c1C1(CC2)C(=O)c2c(O)c3c(c(O)c2C1=O)C(=O)C(N[C@@H](CC(N)=O)C(=O)O)=CC3=O (some centres unmarked) [Example 26, 2',3'-Dihydro-7'-(methoxymethoxy)-1H-indene-1'-spiro-2-4,9-dihydroxy-6-(1-carboxy-2-carbamoylethylamino)-2H-benz[f]indene-1,3,5,8-tetrone] | 1.23 (≈ 2.23 µM) | – | – | – | – | 9.3 (≈ 16.9 µM) | –
COCOc1cccc2c1C1(CC2)C(=O)c2c(O)c3c(c(O)c2C1=O)C(=O)C(NC1C(=O)N2C1SC(C)(C)C2C(=O)O)=CC3=O (centres unmarked) [Example 27, 6-((2',3'-dihydro-7'-(methoxymethoxy)-1H-indene-1'-spiro-[4,9-dihydroxy-2H-benz[f]indene-1,3,5,8-tetrone]-6-yl)amino)penicillanic acid] | – | – | – | – | 0.22 (≈ 0.347 µM) | 0.24 (≈ 0.378 µM) | –
N=C(N)NCCC[C@H](NC1=CC(=O)c2c(O)c3c(c(O)c2C1=O)C(=O)C1(CCc2cccc(O)c21)C3=O)C(=O)O (some centres unmarked) [Example 28] | 71 (≈ 129 µM) | – | – | – | – | > 500 | –
COCOc1cccc2c1C1(CC2)C(=O)c2c(O)c3c(c(O)c2C1=O)C(=O)C(SCCO)=CC3=O (centres unmarked) [Example 33, 2',3'-Dihydro-7'-(methoxymethoxy)-1H-indene-1'-spiro-2-[4,9-dihydroxy-6-(2-hydroxyethylmercapto)-2H-benz[f]indene-1,3,5,8-tetrone]] | 5.08 (≈ 10.2 µM) | – | – | – | – | 107 (≈ 216 µM) | –
COCOc1cccc2c1C1(CC2)C(=O)c2c(O)c3c(c(O)c2C1=O)C(=O)C(Sc1ccccc1)=CC3=O (centres unmarked) [Example 34, 2',3'-Dihydro-7'-(methoxymethoxy)-1H-indene-1'-spiro-2-[4,9-dihydroxy-6-(phenylmercapto)-2H-benz[f]indene-1,3,5,8-tetrone]] | 78 (≈ 148 µM) | – | – | – | – | 110 (≈ 208 µM) | –
NCCSSCCNC1=CC(=O)c2c(O)c3c(c(O)c2C1=O)C(=O)C1(CCc2cccc(O)c21)C3=O (centres unmarked) [Example 35, 2',3'-Dihydro-7'-hydroxy-1H-indene-1'-spiro-2-[4,9-dihydroxy-6-(2(2-aminoethyldithio)ethylamino)-2H-benz[f]indene-1,3,5,8-tetrone] hydrochloride] | – | – | – | – | 22 | 24 | –
COCOc1cccc2c1C1(CC2)C(=O)c2c(O)c3c(c(O)c2C1=O)C(=O)C(Nc1ccc(SSc2ccc(N)cc2)cc1)=CC3=O (centres unmarked) [Example 36, 2',3'-Dihydro-7'-(methoxymethoxy)-1H-indene-1'-spiro-2-[4,9-dihydroxy-6-(4-(4-aminophenyldithio)phenylamino)-2H-benz[f]indene-1,3,5,8-tetrone]] | > 500 | – | – | – | – | 458 (≈ 687 µM) | –
